The target in assay [1] is T1, ACAT (AcylCoA-Cholesterolacyltransferase) (Oryctolagus cuniculus, UniProt G1SFD9).
T1 construct: from tissue; host or cells: rabbit small intestine epithelium, microsome fraction
T1 sequence (G1SFD9 1-524): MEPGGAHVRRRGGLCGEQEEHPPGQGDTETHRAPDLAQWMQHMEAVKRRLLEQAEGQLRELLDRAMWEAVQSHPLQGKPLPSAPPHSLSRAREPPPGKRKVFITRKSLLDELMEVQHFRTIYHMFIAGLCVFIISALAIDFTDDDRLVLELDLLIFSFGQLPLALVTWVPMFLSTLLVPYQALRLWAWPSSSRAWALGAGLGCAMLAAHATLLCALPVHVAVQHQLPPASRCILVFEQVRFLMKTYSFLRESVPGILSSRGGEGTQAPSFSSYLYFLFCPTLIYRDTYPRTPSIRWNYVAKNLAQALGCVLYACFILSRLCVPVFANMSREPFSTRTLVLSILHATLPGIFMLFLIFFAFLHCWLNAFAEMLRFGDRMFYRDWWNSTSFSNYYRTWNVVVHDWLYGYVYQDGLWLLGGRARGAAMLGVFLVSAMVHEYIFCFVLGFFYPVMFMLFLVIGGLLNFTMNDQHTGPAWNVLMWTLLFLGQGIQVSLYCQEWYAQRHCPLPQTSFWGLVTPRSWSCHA
As to the kind of experiment: ACAT inhibitory activity in test tube (method of Heider et al., [1-14C]oleylCoA, small intestine epithelium microsome fraction). It is filed as biochemical, rabbit. The following applies: read-out: Inhibitory Ratio (%). The procedure:
That is, a rabbit is fed a 1% cholesterol diet for 3 weeks followed by dissection and extraction of the small intestine. After peeling off the small intestine epithelium and crushing with a homogenizer, incompletely crushed solids are removed by centrifugal separation. […] After allowing the reaction to proceed for the prescribed amount of time, 7 ml of a mixture of dichloromethane: methanol (2:1) is added to the reaction mixture and thoroughly mixed. The reaction, is stopped and the dichloromethane layer is removed, after which the cholesterol oleate portion is separated from that fraction by silica gel TLC (developing solution: petroleum ether:diethyl ether=95:5). The separated portion is scraped off and the radioactivity is measured using a liquid scintillation counter to calculate ACAT activity.

For assay [2], the system named is ACAT activity of small intestine epithelial cells. The assay is described as follows: Animal test: ACAT activity of small intestine epithelial cells after administration in feed. The following applies: male hamsters, 1 mg/animal/day mixed in feed. Format: in vivo. On the procedure:
A test substance according to the present invention was administered to hamsters (males, body weight: 100 g) at a dose of 1 mg/animal/day by mixing in the same to their feed. The ACAT activity of small intestine epithelial cells was then measured after one week and after two weeks.

[3] abbreviates: Concentration 20 μg/ml, rabbit small intestine microsome ACAT.
The mark [4] stands for this setting: Concentration 50 μg/ml, rabbit small intestine microsome ACAT.
[5] abbreviates: Concentration 100 μg/ml, rabbit small intestine microsome ACAT.
[6] abbreviates: Concentration 150 μg/ml, rabbit small intestine microsome ACAT.
The mark [7] stands for this setting: Concentration 200 μg/ml, rabbit small intestine microsome ACAT.

Read-outs that look alike come from different tables or passages of the source.

Consider `CCCCCCCCCCCCCCCCCC(=O)OCC(O)CO` (stereo not shown) [1-stearoylglycerol], for which, in assay [1], the inhibition at 20 µg/mL amounted to 15%, the inhibition at 50 µg/mL is 29%, the inhibition at 100 µg/mL is 38% and the inhibition at 150 µg/mL turned out to be 45%. In assay [1], the inhibition at 200 µg/mL is 49%. In addition, in assay [2], the “ACAT Inhibitory Ratio (%) After 1 week” value turned out to be 31% and the “ACAT Inhibitory Ratio (%) After 2 weeks” value was 29%.
On to `CCCCCCCCCCCCCCCC(=O)OCC(O)CO` (stereo not shown) [1-palmitoylglycerol], for which the inhibition at 20 µg/mL in assay [1] (setting [3]) worked out at 26%. Also, the inhibition at 50 µg/mL in assay [1] (setting [4]) came to 56%. In addition, the inhibition at 100 µg/mL in assay [1] (setting [5]) is 75%. The inhibition at 150 µg/mL in assay [1] (setting [6]) was 86%. The inhibition at 200 µg/mL in assay [1] (setting [7]) was found to be 94%. In assay [2], the “ACAT Inhibitory Ratio (%) After 1 week” value worked out at 56% and the “ACAT Inhibitory Ratio (%) After 2 weeks” value is 50%.
For `CCCCCCCC/C=C\CCCCCCCC(=O)OCC(O)CO` (stereo not shown), in assay [1], the inhibition at 20 µg/mL is 30%, the inhibition at 50 µg/mL was 59%, the inhibition at 100 µg/mL was 81% and the inhibition at 150 µg/mL was found to be 92%. Further, the inhibition at 200 µg/mL in assay [1] worked out at 100%. In assay [2], the “ACAT Inhibitory Ratio (%) After 1 week” value worked out at 60% and the “ACAT Inhibitory Ratio (%) After 2 weeks” value is 52%.
As to `CC/C=C\C/C=C\C/C=C\CCCCCCCC(=O)OCC(O)CO` (stereo not shown) [1-linolenoylglycerol], in assay [1], the inhibition at 20 µg/mL came out at 25%, the inhibition at 50 µg/mL was 50%, the inhibition at 100 µg/mL turned out to be 76% and the inhibition at 150 µg/mL was determined as 86%. Moreover, in assay [1], the inhibition at 200 µg/mL is 92%. In addition, in assay [2], the “ACAT Inhibitory Ratio (%) After 1 week” value turned out to be 57% and the “ACAT Inhibitory Ratio (%) After 2 weeks” value is on record as 51%.
Take `CCCCC/C=C\C/C=C\CCCCCCCC(=O)OCC(O)CO` (stereo not shown): the inhibition at 20 µg/mL in assay [1] (setting [3]) worked out at 28%. Further, the inhibition at 50 µg/mL in assay [1] (setting [4]) came to 54%. Besides, the inhibition at 100 µg/mL in assay [1] (setting [5]) turned out to be 74%. Moreover, the inhibition at 150 µg/mL in assay [1] (setting [6]) was 86%. The inhibition at 200 µg/mL in assay [1] (setting [7]) came out at 93%. Moreover, in assay [2], the “ACAT Inhibitory Ratio (%) After 1 week” value was determined as 59% and the “ACAT Inhibitory Ratio (%) After 2 weeks” value was 53%.
Regarding `CCCCCCCC/C=C\CCCCCCCC(=O)OC(CO)CO`, in assay [1], the inhibition at 20 µg/mL was 32%, the inhibition at 50 µg/mL worked out at 62%, the inhibition at 100 µg/mL came to 82% and the inhibition at 150 µg/mL came to 94%. Besides, the inhibition at 200 µg/mL in assay [1] is 100%. In assay [2], the “ACAT Inhibitory Ratio (%) After 1 week” value stood at 64% and the “ACAT Inhibitory Ratio (%) After 2 weeks” value was found to be 56%.
With `CCCCCC/C=C\CCCCCCCC(=O)OCC(O)CO` (stereo not shown) [1-palmitooleylglycerol], the inhibition at 20 µg/mL in assay [1] (setting [3]) was determined as 24%. Moreover, the inhibition at 50 µg/mL in assay [1] (setting [4]) was determined as 53%. Besides, the inhibition at 100 µg/mL in assay [1] (setting [5]) was 72%. For the same compound, the inhibition at 150 µg/mL in assay [1] (setting [6]) came to 84%. For the same compound, the inhibition at 200 µg/mL in assay [1] (setting [7]) stood at 91%. In addition, in assay [2], the “ACAT Inhibitory Ratio (%) After 1 week” value was determined as 57% and the “ACAT Inhibitory Ratio (%) After 2 weeks” value is 54%.
